Data on 4 molecules can be found in publication PMC4894917, “Differences in Enzymatic Properties of the Saccharomyces kudriavzevii and Saccharomyces uvarum Alcohol Acetyltransferases and Their Impact on Aroma-Active Compounds Production” (Frontiers in Microbiology, 2016).

Usually Km stands for the substrate concentration at which the rate is half of its maximum. As a reminder, the Vmax is the top rate of the reaction or transport when substrate is in excess.

Data set [1] addresses T1, SkAtf2p (Saccharomyces kudriavzevii, UniProt A0AA35JHW3).
T1 construct: gene SKDI07G4300; full-length untagged, pG-SkATF2-TDH3p in S. cerevisiae BY4741 atf1 atf2 iah1, cell extract (strain CLpSkATF2); N-terminus MDDIEEY translated from printed primer pGSkATF2f
T1 sequence (A0AA35JHW3 1-535): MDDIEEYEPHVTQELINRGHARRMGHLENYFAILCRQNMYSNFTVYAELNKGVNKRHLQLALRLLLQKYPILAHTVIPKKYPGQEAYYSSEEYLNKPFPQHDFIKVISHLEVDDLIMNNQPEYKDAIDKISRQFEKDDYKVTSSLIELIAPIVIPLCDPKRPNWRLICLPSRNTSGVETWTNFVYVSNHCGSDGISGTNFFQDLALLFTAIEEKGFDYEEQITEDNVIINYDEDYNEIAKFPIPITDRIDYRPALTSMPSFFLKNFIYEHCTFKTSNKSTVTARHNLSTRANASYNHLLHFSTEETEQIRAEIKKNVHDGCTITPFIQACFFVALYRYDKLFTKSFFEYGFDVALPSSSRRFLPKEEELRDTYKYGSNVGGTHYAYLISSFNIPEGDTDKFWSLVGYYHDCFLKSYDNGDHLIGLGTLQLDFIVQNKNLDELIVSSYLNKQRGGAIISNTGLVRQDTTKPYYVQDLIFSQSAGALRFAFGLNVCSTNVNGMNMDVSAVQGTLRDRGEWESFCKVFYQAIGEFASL
Briefly: acetate ester formation by headspace SPME gas chromatography, cell extract. Type of data set: biochemical. As to conditions: acetyl-CoA 0.8 mM, 50 mM potassium phosphate pH 7.5, 10% glycerol.

For data set [2], the target named is T2, ScAtf2p (Saccharomyces cerevisiae, UniProt P53296).
T2 construct: gene ATF2; full-length untagged, pG-ScATF2-TDH3p in S. cerevisiae BY4741 atf1 atf2 iah1, cell extract (strain CLpScATF2)
T2 sequence (P53296 1-535): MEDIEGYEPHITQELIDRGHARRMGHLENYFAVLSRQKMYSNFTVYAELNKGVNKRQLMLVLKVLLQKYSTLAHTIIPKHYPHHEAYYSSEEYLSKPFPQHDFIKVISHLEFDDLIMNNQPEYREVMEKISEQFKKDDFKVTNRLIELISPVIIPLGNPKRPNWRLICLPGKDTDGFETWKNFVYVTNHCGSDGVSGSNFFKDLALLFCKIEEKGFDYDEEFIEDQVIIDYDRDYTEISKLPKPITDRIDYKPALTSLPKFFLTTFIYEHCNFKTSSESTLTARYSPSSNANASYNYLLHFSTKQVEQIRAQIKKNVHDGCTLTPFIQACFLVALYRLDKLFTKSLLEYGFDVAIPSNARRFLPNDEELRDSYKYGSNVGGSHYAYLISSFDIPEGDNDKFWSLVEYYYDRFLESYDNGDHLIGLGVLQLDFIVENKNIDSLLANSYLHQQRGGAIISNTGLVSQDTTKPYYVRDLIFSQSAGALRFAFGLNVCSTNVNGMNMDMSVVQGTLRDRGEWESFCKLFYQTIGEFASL
The description is as above. As to conditions: acetyl-CoA 0.8 mM, 50 mM potassium phosphate pH 7.5, 10% glycerol. The data set is classed as biochemical.

Data set [3] concerns the target T3, SuAtf2p (Saccharomyces uvarum, UniProt A0ABN8WWD5).
T3 construct: gene SUVZ07G4070; full-length untagged, pG-SuATF2-TDH3p in S. cerevisiae BY4741 atf1 atf2 iah1, cell extract (strain CLpSuATF2); N-terminus MDSLEEY translated from printed primer pGSuATF2f
T3 sequence (A0ABN8WWD5 1-545): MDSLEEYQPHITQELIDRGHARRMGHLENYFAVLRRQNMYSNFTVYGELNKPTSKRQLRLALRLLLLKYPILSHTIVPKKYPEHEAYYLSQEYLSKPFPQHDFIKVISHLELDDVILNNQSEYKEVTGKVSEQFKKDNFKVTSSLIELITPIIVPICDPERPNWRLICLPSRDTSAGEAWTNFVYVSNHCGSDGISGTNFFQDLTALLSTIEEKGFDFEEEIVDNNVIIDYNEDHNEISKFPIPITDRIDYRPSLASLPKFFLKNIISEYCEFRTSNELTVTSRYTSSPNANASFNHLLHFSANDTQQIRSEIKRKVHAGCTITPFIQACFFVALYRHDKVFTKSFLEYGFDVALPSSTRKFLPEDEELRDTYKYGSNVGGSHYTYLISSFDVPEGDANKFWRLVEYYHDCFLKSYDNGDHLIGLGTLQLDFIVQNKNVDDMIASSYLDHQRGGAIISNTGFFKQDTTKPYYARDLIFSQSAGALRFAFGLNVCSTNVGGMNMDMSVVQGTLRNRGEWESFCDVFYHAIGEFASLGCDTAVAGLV
Described as above. The data set is classed as biochemical. As to conditions: acetyl-CoA 0.8 mM, 50 mM potassium phosphate pH 7.5, 10% glycerol.

Substrate in data set [4]: CC(C)CCO
In words: isoamyl acetate formation by headspace SPME gas chromatography, cell extract. As to conditions: acetyl-CoA 0.8 mM, 50 mM potassium phosphate pH 7.5, 10% glycerol, isoamyl alcohol 0.01-100 mM. The data set is classed as biochemical, Saccharomyces uvarum. An excerpt: isoamyl acetate formation by headspace SPME gas chromatography, cell extract on SuAtf1p

Substrate in data set [5]: CC(C)CCO
The data set is described as above. The data set is classed as biochemical, Saccharomyces cerevisiae. As to conditions: acetyl-CoA 0.8 mM, 50 mM potassium phosphate pH 7.5, 10% glycerol, isoamyl alcohol 0.01-100 mM. The source says: isoamyl acetate formation by headspace SPME gas chromatography, cell extract on ScAtf1p

Turning to `CC(C)CCO` [isoamyl alcohol], the “acetate ester formation by headspace SPME gas chromatography, cell extract” value in data set [1] (100 mM alcohol), in data set [2] (100 mM alcohol) and in data set [3] (100 mM alcohol) was “enzymes Atf2 showed considerably stronger activity toward isoamyl alcohol than the other substrates” throughout.

Take `OCCc1ccccc1` [2-phenylethanol]: the “acetate ester formation by headspace SPME gas chromatography, cell extract” value in data set [1] (30 mM alcohol) is “the proportion of the enzyme activity of SkAtf2p and SuAtf2p to 2-phenylethanol”; in data set [2] (30 mM alcohol), “all the strains that expressed the individual ATF1 and ATF2 orthologs exhibited activities”; in data set [3] (30 mM alcohol), “the proportion of the enzyme activity of SkAtf2p and SuAtf2p to 2-phenylethanol”.

B1: SuAtf1p (Saccharomyces uvarum) (protein)
chain: MNTYSEKTSLVQDECLAKMIQNGHSRRMGSVEDLYAALNRQKLYRNFSTYSELNDYCTKDQLTLALRNICLKNPTLLHIVLPARWPDYENYYLSTEYYSQPHPKHDYISVLPELKFDGVILNEQPEHNALMKQILQELKDNNGSYTAKVFKLTTALTIPYAGPTSPTWRLICLPEEGHTDKWKKFIFLSNHCMCDGRSSIHFFQDLRDELNNMKTPPKKLDYIFQYEKDYQLLRKLPEPIENMIDFRPPYMFIPKSLISGFIYSHLRFSSKGVCTRMDEIEKSDEVVTEIITISPSEFQKIKAIIKSNIPGKCTITPFLEVCWFVSLHKWGKFFKPLKFEWLTDVFIPADCRSLLPEDEEVRAMYRYGANVGFVDFTPWISEFNMNDSKENFWPLIAHYHEVISGAIKDKKHLNGLGFNIQGLVQKYVNIDKVMRDRALGKSRGGTLLSNVGIFHQSEETDSRYSIRDLAFGQFQGSWHQAFSLGVCSTNVKGMNIVISSTKNVVGSQESLEELCAMYKALLLNP
notes: full-length untagged, pG-SuATF1-TDH3p in S. cerevisiae BY4741 atf1 atf2 iah1, cell extract (strain CLpSuATF1); N-terminus MNTYSE translated from printed primer pGSuATF1f
In the case of B1, in data set [4], the Km is listed as 92.9 ± 10.9 mM and the Vmax came to 0.00569 µmol/min/mg.

B2: ScAtf1p (Saccharomyces cerevisiae S288C) (protein)
chain: MNEIDEKNQAPVQQECLKEMIQNGHARRMGSVEDLYVALNRQNLYRNFCTYGELSDYCTRDQLTLALREICLKNPTLLHIVLPTRWPNHENYYRSSEYYSRPHPVHDYISVLQELKLSGVVLNEQPEYSAVMKQILEEFKNSKGSYTAKIFKLTTTLTIPYFGPTGPSWRLICLPEEHTEKWKKFIFVSNHCMSDGRSSIHFFHDLRDELNNIKTPPKKLDYIFKYEEDYQLLRKLPEPIEKVIDFRPPYLFIPKSLLSGFIYNHLRFSSKGVCMRMDDVEKTDDVVTEIINISPTEFQAIKANIKSNIQGKCTITPFLHVCWFVSLHKWGKFFKPLNFEWLTDIFIPADCRSQLPDDDEMRQMYRYGANVGFIDFTPWISEFDMNDNKENFWPLIEHYHEVISEALRNKKHLHGLGFNIQGFVQKYVNIDKVMCDRAIGKRRGGTLLSNVGLFNQLEEPDAKYSICDLAFGQFQGSWHQAFSLGVCSTNVKGMNIVVASTKNVVGSQESLEELCSIYKALLLGP
notes: full-length untagged, pG-ScATF1-TDH3p in S. cerevisiae BY4741 atf1 atf2 iah1, cell extract (strain CLpScATF1)
Consider B2, for which, in data set [5], the Km is on record as 32.2 ± 2.2 mM and the Vmax came to 0.00999 µmol/min/mg.
